The text below walks through data of US20240009276A1, “S[…] OF IMMUNITY AGAINST RNA VIRUSES” (Health Research, Inc., priority 2020, published 2024).

Series [1] relates to Human epithelial cells (SW620). Format: cell-based. The arrangement: key to synergy of combination with Poly-IC / synergy of combination with rintatolimod / synergy of combination with TNFα: Yes*: *Direct support by current data (Rintatolimod and poly-IC share binding to TLR3 but not other immunostimulatory properties/recognition receptors/signaling pathways^3).
Another series has as its system SARS-CoV. Conditions: mouse, in vivo; cited from earlier work.
For series [2] the following is noted: cited from earlier work.
For another series, the system named is human coronavirus OC43. To be noted: human coronavirus OC43, BS-C-1 kidney cells; cited from earlier work.

For orientation: EC50 means the concentration giving half of the maximal effect.

As for IFNα, in series [1], the “synergy of combination with Poly-IC” value is “Yes*”, the “synergy of combination with TNFα” value was “Yes*” and the “synergy of combination with rintatolimod” value is reported as “Yes*”. Further, the antiviral/survival effect result in the series with SARS-CoV is listed as “significant antiviral/survival effect”.
Consider IFNγ, for which, in series [1], the “synergy of combination with Poly-IC” value is given as “Yes*”, the “synergy of combination with TNFα” value was “Yes*” and the “synergy of combination with rintatolimod” value was “Yes*”.
As to “polyinosinic:polycytidylic acid [poly-I:C, reference compound]”, in series [1], the “induction of genes involved in SARS-Cov elimination (OAS2, Ifit-1, Mx1, RIG-I, MDA5, TLR3, other ISGs)” value is listed as “synergistic effects”.
For rintatolimod [reference compound], the “induction of genes involved in SARS-Cov elimination (OAS2, Ifit-1, Mx1, RIG-I, MDA5, TLR3, other ISGs)” value in series [1] is “synergistic effects”. Further, the antiviral/survival effect entry with SARS-CoV is given as “significant antiviral/survival effect”. Further, the “easily achievable concentration in humans” value in series [2] was 40 µg/mL. Further, in the series with human coronavirus OC43, the EC50 is 0.4 mg/L.
